Literature values as cited in patent US20030083286A1, “Bioadhesive compositions and methods for enhanced intestinal drug absorption” (priority 2001, published 2003).
Like-named read-outs stand apart in the source and are kept apart here. In the oligonucleotide strings, read from the 5' end, every base follows the letter of its sugar. An asterisk marks phosphorothioate; unmarked linkages are phosphodiester. Other units and linkages are bracketed, terminal groups are in braces. A string of capitals states the bases alone. d = 2'-deoxy (DNA)

How the values were obtained:
[1] = test system: ICAM-1
[2] = test system: ICAM-1; details: C8161 human melanoma cells
[3] = test system: C8161 cells
[4] = test system: ICAM-1 over HLA-A and HLA-B; details: versus HLA-A and HLA-B
[5] = not given; remark: listed apart in the source

Substance: ISIS 2302: 2′-deoxyoligonucleotide, phosphorothioate backbone, 5′-GCC-CAA-GCT-GGC-ATC-CGT-CA-3′ (SEQ ID NO:1), targeted to 3′-UTR of human ICAM-1 gene (antisense dG*dC*dC*dC*dA*dA*dG*dC*dT*dG*dG*dC*dA*dT*dC*dC*dG*dT*dC*dA)
- ICAM-1 expression ([1]; human epidermal carcinoma cells (A431)): inhibit ICAM-1 expression
- ICAM-1 expression ([1]; human keratinocytes): inhibit ICAM-1 expression
- ICAM-1 expression ([1]; human lung carcinoma cells (A549)): inhibit ICAM-1 expression
- ICAM-1 expression ([1]; human umbilical vein cells): inhibit ICAM-1 expression
- ICAM-1 expression (mRNA levels, northern blot) [2]: markedly reduced ICAM-1 expression
- enhanced metastatic ability of C8161 cells resulting from TNF-α treatment ([3]; TNF-α treated cells): eliminated the enhanced metastatic ability
- metastatic potential of C8161 cells ([3]; in vivo): decreased the metastatic potential
- specificity for target ICAM-1 over other potential nucleic acid targets [4]: demonstrated specificity
- activity against Crohn's disease in humans (humans): activity against Crohn's disease
- steroid-sparing effect on treated subjects (humans, five months post-treatment weaned from steroids and in remission): statistically significant steroid-sparing effect
- safety in humans (in vivo): good safety
- anti-inflammatory effects in animal testing ([5]; Crohn's disease, rheumatoid arthritis, psoriasis, ulcerative colitis, kidney transplant rejection): strong anti-inflammatory effects
- biological activity in animal models of inflammatory disease ([5]; in vivo): significant biological activity

Substance: ISIS 1939: 2′-oligodeoxynucleotide, phosphorothioate backbone, 5′-CCC-CCA-CCA-CTT-CCC-CTC-TC-3′ (SEQ ID NO:2), targeted to 3′-UTR of human ICAM-1 gene (antisense CCCCCACCACTTCCCCTCTC; DNA, all phosphorothioate, methylation of C not given here)
- ICAM-1 expression (mRNA levels, northern blot) [2]: markedly reduced ICAM-1 expression
